{
  "source": "patent US6995018B1",
  "about": "“Complex formed by N-linked glycoproteins (SIBLINGS)and Factor H” (The United States of America as represented by the …, priority 1999, dated 2006)",
  "key": {"[1]": {"system": "Murine erythroleukemia (MEL) cells", "experiment": "Alternate complement mediated cell lysis assay, MEL cells with normal human serum", "format": "cell-based", "conditions": "for effect of pretreatment on protective effect of rOPN: pretreatment followed by rOPN 10 μg/mL; for protection of MEL cells from complement-mediated lysis (cell viability): 10 μg/mL protein 10 min, normal human serum 1:10, 2 h, trypan blue and MTT", "protocol": "MEL cells were rinsed three times with GVB-MgEGTA buffer, resuspended in GVB-MgEGTA at a density of 5×10^6 cells/mL, and incubated at 37° C. with different concentrations of normal human serum. After 2 hrs, cells were harvested for trypan blue exclusion assay. The thiazolium blue assay was carried out at identical serum dilutions and cell viability was determined by absorbance at 560 nm. Each data point represents the average of three measurements. The error bars represent the standard deviation of the mean (A). MEL cells in GVB-MgEGTA buffer were incubated with 10 μg/mL of either rBSP or rOPN for 10 minutes at 37° C. Normal human serum was then added at a dilution of 1:10 and the cells were returned to 37° C., incubated for 2 hours and cell viability was determined by trypan blue and thiazolyl blue (MTT) reduction assays (B). Data from 3–7 separate experiments, with treatment replicates in triplicate, was combined to yield mean values. Error bars represent the standard error of the mean. N=number of experiments combined.\nMEL cells prepared as in FIG. 8 were treated with normal rBSP (10 μg/mL), rBSP whose RGD sequence had been mutated to KAE ([…]), and either GRGDS (SEQ ID NO: 10) peptide (400 μM) followed by rBSP or an αVβ3 antibody (1:4000) followed by rBSP for 10 minutes prior to the addition of normal human serum. The cells were then incubated for […] after which cell viability determined using the MTT assay (A). A cohort of MEL cells were pretreated with rOPN (10 μg/mL) alone, GRGDS (SEQ ID NO: 10) peptide followed by rOPN, the αVβ3 antibody followed by rOPN, or an anti-CD44 antibody (Chemicon, Co.) followed by rOPN, or hyaluronan (HA) followed by rOPN (B). Cells were then treated with normal human serum and viability assayed as in FIG. 8. […] The data represents the mean and standard error of the mean for three separate experiments. Statistical significance was determined by analysis of variance. Percent cell viability was determined using A560 absorbance values of various conditions and a control where no serum had been added (100% viable). The cross-hatched region represents that range of values observed when normal human serum (1:10) alone was added (maximal cell death).\nThe first model system employed was a murine erythroleukemia (MEL) cell line which when incubated with normal human serum can be readily assayed for alternate complement pathway (ACP)-mediated cell lysis (Varnet et al., Curr. Opin. Cell Biol., 8(5):724–730, 1996). Cell survival was measured by both trypan blue dye exclusion and by thiazolyl blue (MTT) reduction by living mitochondria. Titration with dilutions of normal human serum and time courses were carried out to define optimal incubation conditions. At 1:10 dilution, human serum totally lysed the MEL cells as measured by both assay systems (FIG. 8A).\nMurine erytliroleukemia (MEL) cells (a gift of Dr. Marilyn Farquhar, Univ. CA San Diego.) grown in DMEM containing 10% fetal bovine serum and 4 mM glutamine were rinsed three times with gelatin veronal buffer with Mg2^+ and EGTA (GVB-MgEGTA, Sigma, St. Louis, Mo.). Cells were resuspended in GVB-MgEGTA at a density of 5×10^6 cells/mL and incubated at 37° C. with different concentrations of normal human serum diluted in GVB-MgEGTA. After 2 h, cells were harvested for trypan blue exclusion assay by removing a 50 μL aliquot, incubating for 15 minutes in 0.4% trypan blue, and counting viable cells under an inverted microscope. The thiazolium blue assay was carried out at identical serum dilutions by incubating a 50 μL aliquot of the cell suspension in an equal volume of 1 mg/mL thiazolyl blue (MTT) for 45 min. Cell viability was determined spectrophotometrically by absorbance at 560 nm. Cells in GVB-MgEGTA buffer were pre-incubated with 10 μg of either rBSP, rDMP1, or rOPN in 1 mL for 10 minutes at 37° C. […]"}, "[2]": {"biological_target": "T1, purified human complement Factor H (Homo sapiens, UniProt P08603)", "T1 construct": "purchased Quidel Corporation (San Diego, Calif.)", "T1 sequence (P08603 19-1231)": "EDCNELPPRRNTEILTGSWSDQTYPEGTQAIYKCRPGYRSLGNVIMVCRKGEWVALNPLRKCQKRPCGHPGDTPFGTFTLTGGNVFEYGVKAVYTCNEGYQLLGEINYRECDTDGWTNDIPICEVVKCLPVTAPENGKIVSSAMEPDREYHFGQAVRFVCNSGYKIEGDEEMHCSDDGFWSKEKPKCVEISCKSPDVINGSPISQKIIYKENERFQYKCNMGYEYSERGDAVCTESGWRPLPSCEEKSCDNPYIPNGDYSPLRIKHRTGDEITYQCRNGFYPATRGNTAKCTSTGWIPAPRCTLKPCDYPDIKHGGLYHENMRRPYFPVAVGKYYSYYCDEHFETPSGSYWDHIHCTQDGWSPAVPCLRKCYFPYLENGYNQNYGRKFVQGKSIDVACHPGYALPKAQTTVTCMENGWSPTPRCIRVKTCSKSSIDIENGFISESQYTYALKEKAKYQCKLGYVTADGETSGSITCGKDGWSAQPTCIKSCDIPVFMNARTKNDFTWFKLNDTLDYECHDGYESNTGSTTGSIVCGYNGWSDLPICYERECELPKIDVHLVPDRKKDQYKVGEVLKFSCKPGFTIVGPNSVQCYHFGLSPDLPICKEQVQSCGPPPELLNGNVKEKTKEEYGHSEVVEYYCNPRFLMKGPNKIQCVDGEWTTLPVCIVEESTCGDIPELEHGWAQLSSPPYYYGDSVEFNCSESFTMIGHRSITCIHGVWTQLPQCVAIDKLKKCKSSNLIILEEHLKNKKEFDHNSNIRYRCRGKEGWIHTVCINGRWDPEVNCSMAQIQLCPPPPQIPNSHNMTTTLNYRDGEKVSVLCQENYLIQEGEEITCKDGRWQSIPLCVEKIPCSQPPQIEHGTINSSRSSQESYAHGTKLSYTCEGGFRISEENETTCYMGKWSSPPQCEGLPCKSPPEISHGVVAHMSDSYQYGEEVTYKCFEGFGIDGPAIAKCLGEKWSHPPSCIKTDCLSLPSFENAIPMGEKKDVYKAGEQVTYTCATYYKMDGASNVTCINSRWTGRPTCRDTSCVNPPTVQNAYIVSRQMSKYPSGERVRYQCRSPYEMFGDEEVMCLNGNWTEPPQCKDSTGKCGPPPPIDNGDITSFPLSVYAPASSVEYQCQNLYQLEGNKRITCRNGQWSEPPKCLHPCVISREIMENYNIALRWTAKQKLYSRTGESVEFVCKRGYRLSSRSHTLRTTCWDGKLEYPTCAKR", "experiment": "Steady state fluorescence titration of Factor H with SIBLINGS proteins", "format": "binding", "conditions": "fluorescence quenching at 347 nm, excitation 295 nm", "source_text": "FIGS. 3A and 3B are graphs which show the result of a titration of Factor H with BSP.\nThe salient structural features of Factor H include 20 short consensus repeats (SCRs) that contain four cysteine residues forming two disulfide bonds per repeat. In addition, each SCR contains one conserved tryptophan residue per repeat and Factor H is known to interact with several sialic acid-containing proteins. Therefore, binding interactions between members of the SIBLINGS family of proteins and Factor H can be studied by steady state fluorescence.\nSteady state fluorescence studies were accomplished by titrating purified human complement Factor H with rBSP, rOPN, and rDMP1 followed by excitation at 295 nm and monitoring emission between 300 and 450 nm. The emission profile of Factor H alone yields a peak at 347 nm. The addition of rBSP, rOPN, or rDMP1 in nm increments causes a relative fluorescent intensity quenching. Conversion of the fluorescent intensity titration into a binding curve by determining the fraction of binding sites occupied as the fractional change in fluorescence quenching at 347 nm yields a saturable binding curve. […] Given that normal serum concentration of Factor H is ^˜0.5 mg/mL it is probable that virtually all BSP, OPN, and DMP1 in serum will be complexed with Factor H."}, "[3]": {"system": "MCF-7 breast cancer cells", "experiment": "Alternate complement pathway cell lysis assay with guinea pig serum, MCF-7", "format": "cell-based, human", "conditions": "MCF-7, 10 μg/mL, guinea pig serum 1:5, trypan blue and MTT", "protocol": "(§1) Human cancer cell lines, MCF-7 (A) and U-266 (B) cells were rinsed three time with GVB-MgEGTA buffer and subsequently treated exactly as in the MEL cell complement-mediated cell lysis assay described above except complement active guinea pig serum (GPS) was substituted for human serum. Three different dilutions of GPS were assayed. For cultures pretreated with 10 μg/mL BSP or OPN, the dilution of GPS used was 1:5. Cell viability was determined by both trypan blue exclusion (solid bar) and MTT (open bar) assay. The bars represent the mean values of triplicate samples and the error bars are the standard deviation values.\n(§2) Murine erytliroleukemia (MEL) cells (a gift of Dr. Marilyn Farquhar, Univ. CA San Diego.) grown in DMEM containing 10% fetal bovine serum and 4 mM glutamine were rinsed three times with gelatin veronal buffer with Mg2^+ and EGTA (GVB-MgEGTA, Sigma, St. Louis, Mo.). Cells were resuspended in GVB-MgEGTA at a density of 5×10^6 cells/mL and incubated at 37° C. with different concentrations of normal human serum diluted in GVB-MgEGTA. […] Cell viability was determined spectrophotometrically by absorbance at 560 nm. […] Normal human serum collected for good complement activity was then added at a dilution of 1:10 and the cells returned to 37° C. for 2 hours and cell viability was determined by trypan blue-exclusion and MTT assays. […]"}, "U-266 myeloma cells": {"system": "U-266 myeloma cells", "experiment": "Alternate complement pathway cell lysis assay with guinea pig serum, U-266", "format": "cell-based, human", "conditions": "U-266, 10 μg/mL, guinea pig serum 1:5, trypan blue and MTT", "protocol": "as §1, §2"}},
  "data": [
    {"substance": "GRGDS: synthetic peptide used to compete with SIBLINGS proteins for integrin type binding (Calbiochem-NovaBiochem) [reference compound]", "values": [
      {"measurement": "effect of pretreatment on protective effect of rBSP", "setting": "[1]; MEL cells, GRGDS 400 μM or αVβ3 antibody 1:4000 followed by rBSP 10 μg/mL, MTT", "result": "negated the protective effect"},
      {"measurement": "effect of pretreatment on protective effect of rOPN", "setting": "[1]; MEL cells, MTT", "result": "reduced cell survival"},
      {"measurement": "effect of preincubation on DMP1 protection", "setting": "[1]; cells preincubated before DMP1", "result": "diminished but did not abolish"}
    ]},
    {"substance": "OPN: osteopontin, SIBLINGS family member; recombinant from adenoviral construct", "values": [
      {"measurement": "binding constant with Factor H", "setting": "[2]", "result": "in the nM range"},
      {"measurement": "dose relation of protection of MEL cells from alternate complement pathway-mediated lysis", "setting": "[1]", "result": "dose related responses"},
      {"measurement": "protection of MEL cells from complement-mediated lysis (cell viability)", "setting": "[1]", "result": "protect"},
      {"measurement": "protection of MEL cells from complement-mediated lysis (cell viability)", "setting": "[1]; listed as recombinant OPN", "result": "conferred protection"},
      {"measurement": "survival and protection from complement-mediated cell lysis", "setting": "[3]", "result": "enhanced survival and protection"},
      {"measurement": "survival and protection from complement-mediated cell lysis", "setting": "U-266 myeloma cells", "result": "enhanced survival and protection"}
    ]},
    {"substance": "hyaluronan [reference compound]", "values": [
      {"measurement": "effect of pretreatment on protective effect of rOPN", "setting": "[1]; MEL cells, MTT", "result": "reduced the protective effect"}
    ]},
    {"substance": "rBSP-Factor H: pre-formed complex of rBSP and Factor H", "values": [
      {"measurement": "protection of MEL cells from complement-mediated lysis (cell viability)", "setting": "[1]", "result": "abolished the protection"}
    ]},
    {"substance": "rOPN-Factor H: pre-formed complex of rOPN and Factor H", "values": [
      {"measurement": "protection of MEL cells from complement-mediated lysis (cell viability)", "setting": "[1]", "result": "abolished the protection"}
    ]}
  ]
}
